The assay concerns the target X-box-binding protein 1 (Homo sapiens) (UniProt P17861). Put plainly: inhibitors of XBP1 reporter signal, dose response, counter-screen, cell-based (AID 504313).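 Note: CHO cells carrying an XBP1 reporter stimulated with tunicamycin; potency is for inhibition of the tunicamycin-induced reporter signal.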 To be noted: XBP1 reporter cell assay, percent of control.

Activity calls are given as the source filed them. The rule behind the calls is not given here.

`CCSc1nc2ccccc2n1C(=O)/C=C\c1ccc(OC)c(OC)c1`: the IC50 is 4.66 µM.
Turning to `C/C(=N\N=C1\NC(=O)C(CC(=O)Nc2ccc(C)c(Cl)c2)S1)C(C)(C)C` (stereo not drawn), the IC50 is 4.96 µM.
For `COc1ccc(C2CC(c3c(-c4ccccc4)c4cc(Cl)ccc4[nH]c3=O)=NN2S(C)(=O)=O)cc1OC` (stereo not drawn), the IC50 result is “inactive”.
For `O=C(CCl)Nc1cn(-c2ccccc2)nc1-c1ccc(F)cc1`, the IC50 was > 10 µM (inactive).
On to `CCNC(=S)N/N=C/c1cc(Br)cc(Br)c1OC`, for which the IC50 is > 10 µM (inactive).
For `CC1=C(C)/C(=N\OS(=O)(=O)c2ccccc2)C=CC1=O`, the IC50 was 2.89 µM.
Regarding `O=S(=O)(Nc1cccc2c1CCCC2)c1cccc(C(F)(F)F)c1`, the IC50 entry is “inactive”.
Turning to `COc1ccc(C(=O)c2c(C(F)(F)F)oc3c2C(=O)c2ccccc2C3=O)cc1`, the IC50 result was “inactive”.
With `Cc1ccc(/C=N/NC(=O)CCCOc2ccc(Cl)cc2Cl)cc1`, the IC50 is > 10 µM (inactive).
Take `CCOc1cc(C)c(-c2onc(C(F)(F)F)c2-c2csc(C)n2)c(O)c1`: the IC50 entry is “inactive”.
With `CCC(C)NC(=O)c1c(N)n(CC2CCCO2)c2nc3ccccc3nc12` (stereo not drawn), the IC50 is > 10 µM (inactive).
In the case of `O=C(NC(c1ccccc1)c1c(O)ccc2ccccc12)c1ccccc1Cl` (stereo not drawn), the IC50 entry was “inactive”.
For `Fc1cc(F)c2nc(Nc3nc4cc5c(cc4s3)OCO5)sc2c1`, the IC50 is > 10 µM (inactive).
As to `C=C1C(=O)C=C2CN(C(=O)c3ccccc3)[C@@](Cc3ccc(F)cc3)(C(=O)OC)[C@@H]12`, the IC50 is 1.03 µM.
For `N#CC1=C(N)N2C(=C(C#N)C1c1ccc(Br)cc1)Nc1ccccc12` (stereo not drawn), the IC50 entry is “inactive”.
Turning to `CCCCc1c(C)nn(-c2nnc3c4ccccc4n(CC)c3n2)c1C`, the IC50 was > 10 µM (inactive).
For the molecule `O=S1(=O)C=C(Sc2nc3ccccc3s2)c2ccccc21`, the IC50 is 2.74 µM.
Consider `Cc1cccc(OCc2n(CC(=O)OC3CC(C)CCC3C(C)C)c3ccccc3[n+]2C)c1` (stereo not drawn), for which the IC50 is > 10 µM (inactive).
Then `CC(/C=N/n1c(C2CCCCC2)n[nH]c1=S)=C\c1ccccc1`, with > 10 µM (inactive); and `CC1CCN(c2nc3ccc(C(=O)O)cc3s2)CC1`, with “inactive”.
Then `O=C(CCl)Nc1cc(-c2ccccc2)nn1-c1ccccc1`, with “inactive”; and `O=C(NC1CCCCC1)C(c1ccc(F)cc1)N(Cc1ccccc1)C(=O)CN1C(=O)c2ccccc2S1(=O)=O` (stereo not drawn), with “inactive”.
For `OC1(c2cccc(C(F)(F)F)c2)CCN(c2ncnc3c2[nH]c2ccc(F)cc23)CC1`, the IC50 was 3.86 µM.
With `CCCCNS(=O)(=O)c1ccc2nc(-c3cccnc3)cc(C(=O)NC3CCCC3)c2c1`, the IC50 is > 10 µM (inactive).
Take `O=C(NC(c1ccccc1)c1cc(Cl)c2cccnc2c1O)c1cccnc1` (stereo not drawn): the IC50 result is “inactive”.
As to `O=C(c1ccc(COc2ccc(Cl)cc2)o1)N1N=C(C(F)F)CC1(O)C(F)F` (stereo not drawn), the IC50 result is “inactive”.
On to `Cc1nc2c(=O)n(C)c(=O)n(C)c2nc1Cl`, for which the IC50 entry was “inactive”.
With `O=C(On1c(-c2ccccc2)nc2ccccc2c1=O)c1ccco1` the figure was > 10 µM (inactive); with `Nc1cc(Cl)ccc1Oc1ccc(Cl)cc1`, “inactive”.
Then `CCc1ccc(C(=O)/C=C/c2ccc([N+](=O)[O-])o2)cc1`, with > 10 µM (inactive).
With `Cc1cc2c(cc1C)CSC(c1c(O)ccc3ccccc13)SC2` the figure was > 10 µM (inactive).
Take `O=C(Nc1ccccc1-c1nc2ccccc2[nH]1)c1sc2ccccc2c1Cl`: the IC50 was > 10 µM (inactive).
For `COc1ccc(/C=C2\SC(=S)N(CCCC(=O)Nc3ccc(O)cc3)C2=O)cc1`, the IC50 was under 0.16 µM.
Take `CN(C)c1ccc(C(CNS(=O)(=O)c2ccc(F)c(F)c2)c2c[nH]c3ccccc23)cc1` (stereo not drawn): the IC50 entry was “inactive”.
Then `CCCCn1c(N2CCC(Cc3ccccc3)CC2)nc2c1c(=O)[nH]c(=O)n2C`, with > 10 µM (inactive).
Consider `CC1CCCC(NCC(O)COC(c2ccc(F)cc2)c2ccc(F)cc2)C1C` (stereo not drawn), for which the IC50 entry is “inactive”.
With `CC(C)(C)c1ccc(C(=O)NNC(=O)c2cccc(Br)c2)cc1`, the IC50 was > 10 µM (inactive).
Then `CC(C)=CCc1c(O)cc2oc3c(CC=C(C)C)c(O)c(O)c(CC=C(C)C)c3c(=O)c2c1O`, with 5.24 µM; and `CCCCCc1ccc(OCCOCCn2c[n+](C)c3ccccc32)c(CCCCC)c1`, with “inactive”; and `O=C(CN1CCN(c2ncc(C(F)(F)F)cc2Cl)CC1)NCCNc1ncc(C(F)(F)F)cc1Cl`, with “inactive”.
On to `CCOC(=O)c1c2ccc(OCC(=O)N/N=C/c3ccc(C)cc3)cc2n2ccccc12`, for which the IC50 result is “inactive”.
Consider `Cc1ccc(COc2ccc(Br)cc2/C=N/O)cc1`, for which the IC50 was > 10 µM (inactive).
Consider `CCn1c(C)nc2cc(-c3nc4n(n3)Cc3ccccc3-4)ccc21`, for which the IC50 is < 0.16 µM (inactive).
With `O=C(c1ccc(Cl)cc1)c1c[nH]c(C(=O)NNc2cccc(Cl)n2)c1` the figure was > 10 µM (inactive); with `CCc1ccc2[nH]c(=O)c(C(c3nnnn3Cc3ccco3)N3CCC(C)CC3)cc2c1` (stereo not drawn), > 10 µM (inactive); with `O=c1c(Br)c(Br)cnn1-c1ccccc1`, “inactive”.
As to `O=C(OCn1ncc(Cl)c(Cl)c1=O)c1ccc(C(F)(F)F)cc1`, the IC50 was > 10 µM (inactive).
For the molecule `OCCCNc1nccc(-c2cc(Nc3cccc(Cl)c3)ncn2)n1`, the IC50 is 0.3 µM.
`NC(=S)n1[nH]c(-c2ccc([N+](=O)[O-])cc2)c(N=Nc2ccc(Cl)cc2)c1=O`: the IC50 result was “inactive”.
As for `CCCCCn1c(=O)c(C(=O)Nc2nc3ccccc3[nH]2)c(O)c2ccccc21`, the IC50 was 4.25 µM.
As to `CCCOc1ccc(Cc2c(Cl)nc(SC)nc2NC)cc1`, the IC50 was > 10 µM (inactive).
Turning to `Cc1ccc(NC(=O)O/N=C/c2c(C)nn(C(C)(C)C)c2C)cc1Cl`, the IC50 was under 0.16 µM.
With `O=C(COCC(=O)Nc1cccc(C(F)(F)F)c1)Nc1cccc(C(F)(F)F)c1` the entry was “inactive”; with `COc1cc(OC)nc(-n2ncc(Br)c(Br)c2=O)n1`, 1.99 µM.
Consider `O/N=C(\c1ccc(Cl)cc1Cl)c1ncc(C(F)(F)F)cc1Cl`, for which the IC50 was 6.07 µM.
For `CC(C)Oc1ccc(CNC(=O)CC(c2ccccc2)c2cc(Cl)ccc2O)cc1` (stereo not drawn), the IC50 is > 10 µM (inactive).
With `CS(=O)(=O)c1nc(-c2cccs2)cc(C(F)(F)F)n1`, the IC50 entry was “inactive”.
Turning to `OC(c1cccc(OCc2ccccc2)c1)c1nnc(-c2ccccc2)o1` (stereo not drawn), the IC50 is > 10 µM (inactive).
As for `CC(C)(C)c1cc(CN2CCCC(O)C2)c(O)c(C(C)(C)C)c1` (stereo not drawn), the IC50 entry was “inactive”.
Consider `CCOC(=O)c1cnc(-n2nc(C)cc2C)nc1Nc1ccc(O)cc1`, for which the half-inhibitory concentration (IC50) was 1.26 µM.
On to `Cc1ccc(Nc2nc(N)c([N+](=O)[O-])c(N3CCC(C)CC3)n2)cc1C`, for which the IC50 entry is “inactive”.
For `CC(C)CC(NC(=O)c1ccc(Cl)cc1)C(=O)OCC(=O)c1ccc2c(c1)NC(=O)CO2` (stereo not drawn), the IC50 result was “inactive”.
Regarding `O=C(NNC(=O)c1cccc2ccccc12)c1ccc(-c2ccccc2)cc1`, the IC50 is > 10 µM (inactive).
With `CC(C)=CCCC1(C)C=Cc2c(c(C)cc3c2[nH]c2cc(O)ccc23)O1` (stereo not drawn) the entry was “inactive”; with `COC(=O)Oc1ccc(/C=N/NC(=O)CSCc2ccccc2Br)cc1OC`, > 10 µM (inactive); with `O=S(=O)(Nc1cc(Sc2cccc3cccnc23)c(O)c2ccccc12)c1ccc(F)cc1`, 4.63 µM.
As for `CSc1nc2c(cnn2-c2ccc(C)c(C)c2)c(=O)[nH]1`, the IC50 is > 10 µM (inactive).
`CCCCn1c(NS(=O)(=O)c2ccc(C)cc2)c(S(=O)(=O)c2ccccc2)c2nc3ccccc3nc21`: the IC50 was > 10 µM (inactive).
In the case of `O=C1C(Nc2ccc(O)cc2)=C/C(=N/S(=O)(=O)c2cccs2)c2ccccc21`, the IC50 is 1.21 µM.
`COc1ccc(NC(=S)NC(NC(=O)/C=C/c2ccccc2)C(Cl)(Cl)Cl)cc1` (stereo not drawn): the IC50 was > 10 µM (inactive).
Regarding `CCOc1ccc(N(CC(=O)Nc2cccc(Cl)c2)S(=O)(=O)c2c(C)noc2C)cc1`, the IC50 result was “inactive”.
On to `Cc1nc(SCC(=O)Nc2ccc(C)c(F)c2)c2oc3ccccc3c2n1`, for which the IC50 is > 10 µM (inactive).
On to `COc1cc(/C=C(/C#N)c2nc3ccccc3[nH]2)ccc1OCC(=O)Nc1ccccc1C(C)C`, for which the IC50 result was “inactive”.
For `CC(C)(C)C1C/C(=C/c2ccccn2)C(=O)/C(=C/c2ccccn2)C1` (stereo not drawn), the IC50 was 0.55 µM.
As to `O=C(O)c1cccc(COc2ccc(CO)cc2Cl)c1`, the IC50 is under 0.16 µM.
Turning to `CCOc1ccc(-n2c(SCC(=O)Nc3ccc(Br)cc3)nc3n[nH]c(C)c3c2=N)cc1`, the IC50 is > 10 µM (inactive).
Turning to `CCCOC(=O)c1ccc(Oc2cn[nH]c2-c2ccc(OC)cc2O)cc1`, the IC50 is 4.82 µM.
With `CCN(CCO)c1ncnc2c1sc1nc(C(C)C)c3c(c12)CC(C)(C)OC3` the figure was > 10 µM (inactive); with `Cn1c(=O)[nH]c(=O)c2[nH]c(N(Cc3ccccc3)Cc3ccccc3)nc21`, > 10 µM (inactive).
For `O=C(Nc1ccc(S(=O)(=O)N2CCOCC2)cc1)c1ccc(CN2CCc3ccccc3C2)cc1`, the IC50 result was “inactive”.
Regarding `COc1ccc2nc(Nc3nc(CSc4nc5ccccc5[nH]4)cc(=O)[nH]3)nc(C)c2c1`, the IC50 is > 10 µM (inactive).
Then `C/C(=N\NC(=O)COc1ccc(C(C)(C)C)cc1)c1ccc(N2CCOCC2)cc1`, with “inactive”; and `CCCNC(=O)c1nnsc1S(=O)(=O)c1ccc(Cl)cc1`, with 0.87 µM.
Take `CC(C)(C)c1ccc(O)c(N=Cc2cc(Br)ccc2O)c1`: the IC50 result was “inactive”.
On to `COc1cc(C(=O)O/N=C2\C=CC(=O)C(C)=C2)cc(OC)c1OC`, for which the IC50 was > 10 µM (inactive).
As for `CC1=Nc2nc(N3CCCCC3)c(C#N)c3c4c(nc(c23)N1)N(c1ccc(C(C)C)cc1)C(=O)C4`, the IC50 entry is “inactive”.
On to `Cc1ccc(NC(=O)c2cc3ccccc3oc2=O)cc1S(=O)(=O)N(C)C`, for which the IC50 was under 0.16 µM.
Then `C=C1C(=O)O[C@H]2C[C@@H](C)[C@@H]3C=CC(=O)[C@@]3(C)C[C@H]12`, with “inactive”.

The record behind these values is PubChem BioAssay AID504313 (Emory University Molecular Libraries Screening Center, 2011).
